The target of data set [1] is hOAT (Homo sapiens, UniProt Q4U2R8). Nature of the data set: Uptake of antiviral nucleotides (ADV, CDV, cCDV) in CHO-hOAT versus CHO cells. Particulars: for Vmax of uptake by CHO-hOAT / accumulation in CHO-hOAT (in words): CHO-hOAT cells. As for the experimental part: pIRES-hOAT plasmid was transfected into CHO-K1 cells (ATCC CCL61) growing in F-12 nutrient mixture supplemented with 10% fetal bovine serum, 100 U/ml penicillin, and 100 μg/ml streptomycin. 24 hours before transfection, approximately 6×10^6 CHO-K1 cells were seeded into 100-mm Petri dish. At the time of transfection, media was aspirated and 6 ml of fresh media containing 12 μg of pIRES-hOAT and 60 μg of Cytofectin GSV cationic lipid (Glen Research, Sterling, Va.) was added to the cells. Following overnight incubation, selection of stable transformants started in phenol red-free F-12 nutrient mixture containing fetal bovine serum, penicillin and streptomycin as above, plus 1 mg/ml G418 (CLONTECH). […] For the PAH uptake assay, the cells were seeded into 12-well plates at the density of 2×10^5 cell/well. After 48 hours, growth media was aspirated and the cells were washed twice with phosphate buffered saline (PBS). […] After 90 min incubation at 37° C. in the transport buffer, the cells were washed 3-times with ice-cold PBS (2 ml/well) and lysed directly on the plate in the presence of 0.3% Triton X-100 (0.5 ml/well) for 20 min at room temperature. Plates were washed with additional 0.5 ml/well of Triton X-100, the lysate and wash were combined, scintillation fluid was added, and the radioactivity counted.
(§1) Uptake and cytotoxicity of ADV in the two cell lines was compared.

The subject of data set [2] is CHO-hOAT cells. The data set can be described thus: Cytotoxicity in CHO-hOAT compared to CHO cells. To be noted: for fold more cytotoxic in CHO-hOAT compared to CHO cells: without probenecid. It is filed as cell-based, Chinese hamster.
Text: as §1

Substrate in data set [3]: Nc1ncnc2c1ncn2CCOCP(=O)(O)O
Nature of the data set: cells, lysate or membranes. Particulars: other: CHO-hOAT cells; pH 7.2; 37.0 °C.

Substrate in data set [4]: Nc1ccn(C[C@@H](CO)OCP(=O)(O)O)c(=O)n1
The data set can be described thus: cells, lysate or membranes. Particulars: other: CHO-hOAT cells; pH 7.2; 37.0 °C.

With `Nc1ncnc2c1ncn2CCOCP(=O)(O)O` [ADV, Adefovir], the “Vmax of uptake by CHO-hOAT” value in data set [1] stood at 390 pmol/10^6 cells. Further, in data set [1] (CHO-hOAT vs CHO cells), the “accumulation in CHO-hOAT compared to CHO” value was greater than 300 fold. For the same molecule, in data set [2] (in the presence of 1 mM PBC), the “fold more susceptible CHO-hOAT than CHO in the presence of PBC” value is recorded as 3 fold. Moreover, in data set [2], the “fold more cytotoxic in CHO-hOAT compared to CHO cells” value is listed as roughly 500 fold.

Consider `Nc1ccn(C[C@@H](CO)OCP(=O)(O)O)c(=O)n1` [CDV, cidofovir], for which, in data set [1], the “Vmax of uptake by CHO-hOAT” value was 1,110 pmol/10^6 cells and the “accumulation in CHO-hOAT (in words)” value was “efficiently accumulated”. In addition, the “effect of PBC on cytotoxicity (in words)” value in data set [2] (CHO-hOAT cells, with PBC) is “significantly reduced by PBC”. Also, in data set [2], the “fold more cytotoxic in CHO-hOAT compared to CHO cells” value is greater than 400 fold.

As to `Nc1ccn(C[C@H]2COP(=O)(O)CO2)c(=O)n1` [cCDV], the “accumulation in CHO-hOAT (in words)” value in data set [1] was “not”. Further, in data set [2], the “increase of cytotoxicity in CHO-hOAT cells (in words)” value is recorded as “increased to much lesser extent”.

B1: hOAT (Homo sapiens) (protein)
chain: MAFNDLLQQVGGVGRFQQIQVTLVVLPLLLMASHNTLQNFTAAIPTHHCRPPADANLSKNGGLEVWLPRDRQGQPESCLRFTSPQWGLPFLNGTEANGTGATEPCTDGWIYDNSTFPSTIVTEWDLVCSHRALRQLAQSLYMVGVLLGAMVFGYLADRLGRRKVLILNYLQTAVSGTCAAFAPNFPIYCAFRLLSGMALAGISLNCMTLNVEWMPIHTRACVGTLIGYVYSLGQFLLAGVAYAVPHWRHLQLLVSAPFFAFFIYSWFFIESARWHSSSGRLDLTLRALQRVARINGKREEGAKLSMEVLRASLQKELTMGKGQASAMELLRCPTLRHLFLCLSMLWFATSFAYYGLVMDLQGFGVSIYLIQVIFGAVDLPAKLVGFLVINSLGRRPAQMAALLLAGICILLNGVIPQDQSIVRTSLAVLGKGCLAASFNCIFLYTGELYPTMIRQTGMGMGSTMARVGSIVSPLVSMTAELYPSMPLFIYGAVPVAASAVTVLLPETLGQPLPDTVQDLESRKGKQTRQQQEHQKYMVPLQASAQEKNGL
As for B1, the Km in data set [3] was determined as 23 µM; in data set [4], 70 µM.

Values taken from patent US7589186B2, “Isolated hOAT polynucleotide” (priority 1998, dated 2009).
